Reference: patent publication US20250296960A1, “PEPTIDE COMPOSITIONS AND METHODS OF USE THEREOF” (priority 2022, published 2025)
Numbered stars: 1 amine (or outer) side, 2 acyl side, 3 side chain; on linkers, the order of the positions; unused ones are H or OH. Square brackets hold non-standard residues; d marks the D form. Side chains are listed from the residue outwards. Ends that are not written are not given here. Peptide text beside a SMILES is read from it. * marks the point of attachment. Biotin = O=C1N[C@H]2[C@H](CS[C@H]2CCCCC(=O)*)N1; C18 diacid = O=C(O)CCCCCCCCCCCCCCCCC(=O)*; γGlu = O=C(O)[C@H](CCC(=O)[*:2])N[*:1]; AEEA = NCCOCCOCC(=O)O; Aib = CC(C)(N)C(=O)O

T1: human GIPR (Homo sapiens, UniProt P48546)
T1 construct: host or cells: CHO-K1
T1 sequence (P48546 22-466): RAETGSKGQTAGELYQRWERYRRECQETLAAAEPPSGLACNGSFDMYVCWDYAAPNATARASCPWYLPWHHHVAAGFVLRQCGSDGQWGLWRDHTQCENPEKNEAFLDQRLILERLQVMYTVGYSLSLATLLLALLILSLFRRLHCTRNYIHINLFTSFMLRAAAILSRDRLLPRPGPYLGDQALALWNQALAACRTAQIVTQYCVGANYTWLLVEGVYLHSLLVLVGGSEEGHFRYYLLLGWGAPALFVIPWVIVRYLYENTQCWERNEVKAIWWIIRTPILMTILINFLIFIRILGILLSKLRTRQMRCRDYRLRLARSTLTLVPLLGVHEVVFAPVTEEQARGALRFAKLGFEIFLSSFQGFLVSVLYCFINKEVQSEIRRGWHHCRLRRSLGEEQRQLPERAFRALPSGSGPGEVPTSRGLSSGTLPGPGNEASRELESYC

T2: human glucose-dependent insulinotropic polypeptide receptor (GIPR), expressed on CHO-K1 cells (human, UniProt P48546 22-466)
T2 sequence (looked up): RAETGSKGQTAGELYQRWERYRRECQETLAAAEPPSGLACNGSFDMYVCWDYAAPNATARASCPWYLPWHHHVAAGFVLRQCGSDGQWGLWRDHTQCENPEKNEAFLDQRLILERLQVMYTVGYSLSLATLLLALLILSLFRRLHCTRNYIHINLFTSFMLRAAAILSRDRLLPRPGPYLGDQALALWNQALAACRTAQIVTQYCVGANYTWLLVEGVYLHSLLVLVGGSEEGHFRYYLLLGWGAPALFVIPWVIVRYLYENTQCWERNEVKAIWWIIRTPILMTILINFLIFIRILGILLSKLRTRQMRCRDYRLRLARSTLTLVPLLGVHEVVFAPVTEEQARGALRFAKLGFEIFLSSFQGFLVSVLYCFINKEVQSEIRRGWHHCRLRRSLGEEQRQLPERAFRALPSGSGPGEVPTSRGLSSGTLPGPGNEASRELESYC


Legend:
human GIPR = biological target: T1, human GIPR; test: cAMP assay (HitHunter cAMP) in GIPR-expressing CHO-K1 cells (GIPR+ cells); format: cell-based; conditions: Table 31
How it was run: (§1)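 CHO-K1 cells expressing each receptor were plated overnight, then treated with peptide in cAMP assay buffer for 30 min at 37 °C. cAMP was detected by antibody plus detection solution (1 h) and Solution A (3 h), both at room temperature in the dark. Luminescence was the read-out.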

human GCGR = biological target: T3, human GCGR (Homo sapiens, UniProt P47871); test: cAMP assay (HitHunter cAMP) in GCGR-expressing CHO-K1 cells (GCGR+ cells); format: cell-based; conditions: Table 31
T3 construct: host or cells: CHO-K1
T3 sequence (P47871 26-477): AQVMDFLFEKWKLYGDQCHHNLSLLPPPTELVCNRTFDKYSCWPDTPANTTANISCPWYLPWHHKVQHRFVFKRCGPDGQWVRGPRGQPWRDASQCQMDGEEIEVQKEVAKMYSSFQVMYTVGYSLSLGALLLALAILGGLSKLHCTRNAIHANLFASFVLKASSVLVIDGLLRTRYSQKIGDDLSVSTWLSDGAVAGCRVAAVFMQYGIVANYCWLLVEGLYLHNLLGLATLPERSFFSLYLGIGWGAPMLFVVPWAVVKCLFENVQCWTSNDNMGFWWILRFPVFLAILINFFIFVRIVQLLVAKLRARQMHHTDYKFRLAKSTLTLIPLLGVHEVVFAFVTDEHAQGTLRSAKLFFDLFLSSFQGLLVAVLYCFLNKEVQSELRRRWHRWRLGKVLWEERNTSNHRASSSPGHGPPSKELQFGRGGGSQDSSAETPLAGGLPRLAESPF
How it was run: as §1

[1] = Body weight loss in high fat diet (HFD) mice, 2 weeks; format: in vivo; conditions: 20 nmol/kg s.c. Q2D
Description: This study was conducted to confirm the body weight loss effect and select the peptides to be evaluated in high fat diet (HFD) treated mouse, which is widely used as experimental animal model in obesity and diabetes studies. SEQ ID NOs. The peptides were delivered at 0.02% PS80 in PBS and dosing volume was 10 mL/kg. Body weight changes, blood glucose, and food intake were monitored Q2D. Animals were fasted at least 4 hours prior to blood glucose measurement.

[2] = In vitro enzymatic stability against FaSSIF/P (pancreatin in FaSSIF, pH 6.5); format: in vitro ADME; conditions: simulated gi fluid, pH 6.5, Half-life (min)
Description: This study was conducted to determine the enzymatic stability of SEQ ID NOs. 77, 86, 87, 89, 90, and 91 after biotinylation in artificial intestinal environment. The test samples were prepared by mixing stock solutions of peptide and pancreatin dissolved in FaSSIF solution (pH 6.5) in a weight ratio of 25:1. The test samples were incubated at 37° C. for 120 min. The sampling from test samples was proceeded at the predetermined time points (10, 30, 60, and 120 min) and stopped by 10% TFA solution.
Analytical HPLC was performed to determine the remaining amount on an ACQUITY Premier system (Waters, USA) with an ACQUITY CSH C18 column (Waters, USA) at 35° C. using 0.1% TFA in water and acetonitrile. The remaining amount was determined as a percentage of the peak area at the sampling time point relative to the peak area of the initial sample.
For the stability against FaSSIF/P, the test samples were prepared by mixing stock solutions of peptide and pancreatin dissolved in FaSSIF solution (pH 6.5) in a weight ratio of 19:1. The test samples were incubated at 37° C. for 120 min. The sampling from test samples was proceeded at the predetermined time points (10, 30, 60, and 120 min) and stopped by 10% TFA solution.

human GLP-1R = biological target: T4, human GLP-1R (Homo sapiens, UniProt P43220); test: cAMP assay (HitHunter cAMP) in GLP-1R-expressing CHO-K1 cells (GLP-1R+ cells); format: cell-based; conditions: Table 31
T4 construct: host or cells: CHO-K1
T4 sequence (P43220 24-463): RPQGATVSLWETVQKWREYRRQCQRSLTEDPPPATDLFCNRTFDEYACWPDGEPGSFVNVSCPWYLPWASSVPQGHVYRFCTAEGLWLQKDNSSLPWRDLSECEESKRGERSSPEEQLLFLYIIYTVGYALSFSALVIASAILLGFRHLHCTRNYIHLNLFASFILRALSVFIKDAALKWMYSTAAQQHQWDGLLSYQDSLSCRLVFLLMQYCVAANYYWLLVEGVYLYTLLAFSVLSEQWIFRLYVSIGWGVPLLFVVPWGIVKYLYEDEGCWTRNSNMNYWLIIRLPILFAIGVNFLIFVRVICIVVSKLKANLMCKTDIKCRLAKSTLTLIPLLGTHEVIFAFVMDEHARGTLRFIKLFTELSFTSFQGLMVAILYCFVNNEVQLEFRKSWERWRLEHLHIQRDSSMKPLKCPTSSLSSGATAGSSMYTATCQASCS
How it was run: as §1

[3] = biological target: human GLP-1 receptor (GLP-1R), expressed on CHO-K1 cells (human, UniProt P43220 24-463); test: cell-based or functional assay
[4] = biological target: T2, human glucose-dependent insulinotropic …; test: cell-based or functional assay

Row | Molecule | Ratio vs. GLP-1R, GIPR (human GIPR) | Relative % to native ligand, GIPR (human GIPR) [%] | Ratio vs. GLP-1R, GCGR (human GCGR) | Relative % to native ligand, GCGR (human GCGR) [%] | body weight loss effect compared to SEQ ID NO. 77, in words [1] | half-life [2] [min] | Ratio vs. GLP-1R, GLP-1R (human GLP-1R) | Relative % to native ligand, GLP-1R (human GLP-1R) [%] | EC50 (nM), cAMP assay [3] [nM] | EC50 (nM), cAMP assay [4] [nM]
1 | CSCC[C@H](NC(=O)[C@H](CCCCNC(=O)CCCC[C@@H]1SC[C@@H]2NC(=O)N[C@@H]21)NC(=O)[C@H](CC(=O)O)NC(=O)[C@H](CC(C)C)NC(=O)[C@H](CC(C)C)NC(=O)[C@H](CCCCNC(=O)COCCOCCNC(=O)COCCOCCNC(=O)CC[C@H](NC(=O)CCCCCCCCCCCCCCCCC(=O)O)C(=O)O)NC(=O)[C@H](CO)NC(=O)[C@H](Cc1ccc(O)cc1)NC(=O)[C@H](CC(=O)O)NC(=O)[C@H](CO)NC(=O)[C@@H](NC(=O)[C@H](Cc1ccccc1)NC(=O)[C@@H](NC(=O)CNC(=O)[C@H](CCC(N)=O)NC(=O)C(C)(C)NC(=O)[C@@H](N)Cc1ccc(O)cc1)[C@@H](C)O)[C@@H](C)O)C(=O)N[C@@H](CCSC)C(=O)N[C@@H](CCC(N)=O)C(=O)N[C@@H](CCCNC(=N)N)C(=O)N[C@@H](CC(=O)O)C(=O)N[C@@H](Cc1ccccc1)C(=O)N[C@H](C(=O)N[C@@H](CCC(N)=O)C(=O)N[C@@H](Cc1c[nH]c2ccccc12)C(=O)N[C@@H](CC(C)C)C(=O)N[C@@H](CC(C)C)C(=O)N[C@@H](CCC(=O)O)C(=O)NCC(=O)NCC(=O)N1CCC[C@H]1C(=O)N[C@@H](CO)C(=O)N[C@@H](CO)C(=O)NCC(=O)N[C@@H](C)C(=O)N1CCC[C@H]1C(=O)N1CCC[C@H]1C(=O)N1CCC[C@H]1C(=O)N[C@@H](CO)C(N)=O)C(C)C [compound 86] (H-Y[Aib]QGTFTSDYSK([AEEA-AEEA-γGlu-C18 diacid])LLDK(Biotin)MMQRDFVQWLLEGGPSSGAPPPS-NH2; N-terminus and C-terminus assumed) | 639 | 575 | 157 | 142 | inferior | 25.4 | 100 | 90 | – | –
2 | H[Aib]QGTFTSDYSKYLDYMMARDFVQWLIEGGPSSGAPPPSC [Peptide No. 5 (with C-terminal cysteine)] | – | – | – | – | – | – | – | – | 0.0605 | 13.2
